Bridge positions count the residues as written; N and C are the ends. Peptide text beside a SMILES is read from it.
Legend:
[1] = system: Human CMV (Tanaka strain); assay: Inhibitory activity against human CMV infection and proliferation in HELF cells (fluorescence staining); format: cell-based, Human cytomegalo virus
Procedure: (Method) LF derived peptide was dissolved in 2% serum added MEM medium to give five mg/ml solution, filtered and sterilized to make a stock solution. The stock solution was diluted with 2% serum added MEM medium on use. Samples containing human embryo lung fibroblast cells (HELF cells) were suspended in 2% serum added MEM medium and incubated for 10 minutes. The cells were collected by centrifugation, washed twice with 2% serum added MEM medium and suspended in 2% serum added MEM medium. Human cytomegalo virus [Human CMV (Tanaka strain)] was added, incubated for 24 hrs., fluorescence stained with human CMV positive serum and the adsorption rate of human CMV to the cells was determined.
The results are judged from the numbers of fluorescent stained cells per one cover slip.

HIV (HTLV-IIIB) = assay: Inhibitory activity against HIV infection and proliferation in MT-4 cells (indirect fluorescence antibody method); format: cell-based, human immunodeficiency virus (HIV); conditions: three days, positive control 26.0%
Procedure: (Method) Cultured supernatant of MOLT-4/HTLV-IIIB cells, a HTLV-IIIB persistent infected strain of HIV, was used as a viral solution. The supernatant was kept at -80° C. Human T cell line MT-4 was used for the test. MT-4 was subcultured in RPMI 1640 medium containing 10% fetal calf serum (FCS). Sample, LF derived peptide, was dissolved in RPMI 1640 medium and one ml of the diluted solution at various concentrations was added to the cells. The inoculated MT-4 test sample was incubated for 60 minutes and infected with HIV at a concentration of moi […]=0.01 and one ml of the cell solution adjusted at a cell density of 3×10^5 cells/ml was added. The cells were cultured for three days : and HIV infected cells were determined with an indirect fluorescence antibody method.
HIV infected cells were determined by the indirect fluorescence antibody method using HIV infected patient serum as a primary antibody. […] HIV infected MT-4 cells cultured without addition of the sample was used as a positive control and cells without addition of viral solution was cultured to make a negative control group.

[2] = system: influenza virus A/PR/8/34; conditions: 100 μl of one mg/ml solution in allantoic cavity three hours before virus; average of five eggs
[3] = system: mouse cytomegalo virus (mouse CMV); assay: Infection protective test against mouse CMV by the time of administration; format: in vivo; conditions: mice, 0.10 g/kg i.p., after 10 days
Procedure: (Method) Male Balbc/AJcl mice, 4-week-old (10 in one group) were used. The sample was dissolved in phosphate buffer saline solution (PBS) and intraperitoneally administered to mice. […] Timing of administrations of the sample was made 48, 24, six and one hr. before, immediately after, one and six hrs. after the administration.

[4] = system: mouse cytomegalo virus (mouse CMV); assay: In vivo inhibitory activity against mouse CMV infection (survival of mice); conditions: after 10 days
Procedure: (Method) Male Balbc/AJcl mice, 4-week-old (10 in one group) were used. The sample was dissolved in phosphate buffer saline solution (PBS) and intraperitoneally administered to mice.

In the case of CC[C@H](C)[C@H](NC(=O)[C@@H]1CSSC[C@H](NC(=O)[C@H](CCCCN)NC(=O)[C@@H](N)[C@@H](C)O)C(=O)N[C@@H](Cc2ccccc2)C(=O)N[C@@H](CCC(N)=O)C(=O)N[C@@H](Cc2c[nH]c3ccccc23)C(=O)N[C@@H](CCC(N)=O)C(=O)N[C@@H](CCCNC(=N)N)C(=O)N[C@@H](CC(N)=O)C(=O)N[C@@H](CCSC)C(=O)N[C@@H](CCCNC(=N)N)C(=O)N[C@@H](CCCCN)C(=O)N[C@@H](C(C)C)C(=O)N[C@@H](CCCNC(=N)N)C(=O)NCC(=O)N2CCC[C@H]2C(=O)N2CCC[C@H]2C(=O)N[C@@H](C(C)C)C(=O)N[C@@H](CO)C(=O)N1)C(=O)N[C@@H](CCCCN)C(=O)N[C@@H](CCCNC(=N)N)C(=O)N[C@@H](CC(=O)O)C(=O)N[C@@H](CO)C(=O)O [Human LF (18-42)] (H-TKCFQWQRNMRKVRGPPVSCIKRDS-OH; disulfide 3-20), the “Inhibitory rate of human CMV infection” value ([1]; 24 hrs., concentration not given) is reported as 95.7%, the “Inhibitory rate (human CMV infection and proliferation)” value ([1]; concentration 0.04 mg/ml) is reported as 14.7% and the “Inhibitory rate (human CMV infection and proliferation)” value ([1]; concentration 0.1 mg/ml) is reported as 34.9%. For the same molecule, the “Inhibitory rate (human CMV infection and proliferation)” value ([1]; concentration 0.2 mg/ml) was 45.0%, the “Inhibitory rate (human CMV infection and proliferation)” value ([1]; concentration 0.4 mg/ml) was 51.9% and the “Inhibitory rate (human CMV infection and proliferation)” value ([1]; concentration 1.0 mg/ml) was 86.0%. The “Inhibitory rate (human CMV infection and proliferation)” value ([1]; concentration 2.0 mg/ml) was 96.1%, the “ratio of stained (HIV infected) cells” value (HIV (HTLV-IIIB); sample 63 μg/ml) was 17% and the “ratio of stained (HIV infected) cells” value (HIV (HTLV-IIIB); sample 125 μg/ml) was 8.8%. The “ratio of stained (HIV infected) cells” value (HIV (HTLV-IIIB); sample 250 μg/ml) was 6.7%, the “ratio of stained (HIV infected) cells” value (HIV (HTLV-IIIB); sample 500 μg/ml) was 2.9% and the “ratio of stained (HIV infected) cells” value (HIV (HTLV-IIIB); sample 1,000 μg/ml) was 1.1%. The “Inhibitory rate of infection and proliferation of influenza virus” value [2] was 96.9%, the Survival rate ([3]; time of administration 0 hrs.) was 100% and the Survival rate ([3]; time of administration +1 hrs.) was 100%. The Survival rate ([3]; time of administration +6 hrs.) was 60%, the Survival rate ([3]; time of administration -1 hrs.) was 100% and the Survival rate ([3]; time of administration -6 hrs.) was 100%. It also gave a Survival rate ([3]; time of administration -24 hrs.) of 100%, a Survival rate ([3]; time of administration -48 hrs.) of 60% and a Survival rate ([4]; 0.02 g/kg of body weight i.p. 24 hrs. before mouse CMV) of 20%. The Survival rate ([4]; 0.05 g/kg of body weight i.p. 24 hrs. before mouse CMV) was 50%, the Survival rate ([4]; 0.10 g/kg of body weight i.p. 24 hrs. before mouse CMV) was 100% and the Survival rate ([4]; 0.50 g/kg of body weight i.p. 24 hrs. before mouse CMV) was 100%.

— patent US5565425A, “Viral infection and proliferation inhibitors” (Snow Brand Milk Products Co., Ltd, priority 1993, dated 1996)
